According to patent US20090269354A1, “QUINAZOLINE DERIVATIVES AND METHODS OF TREATMENT” (Concert Pharmaceuticals, Inc., priority 2008, published 2009):

Legend:
[1] = Compound stability in human liver microsomes (Example 16, design as Example 15); type: in vitro ADME; details: 1 μM test compound; for half-life at 1 μM: pooled human liver microsomes, pH 7.4, human liver microsomes 0.5 mg/mL; for % Difference with respect to non-deuterated analog: t1/2 vs 105-H or 106-H; for % Difference with respect to non-deuterated analog / % Difference with respect to non-deuterated Erlotinib: 0.5 mg/mL HLM; for % Difference with respect to non-deuterated Erlotinib: t1/2 vs erlotinib
Procedure: The metabolic stability of compounds of the invention was tested using pooled liver microsomal incubations. Samples of the test compounds, exposed to pooled human liver microsomes, were analyzed using HPLC-MS (or MS/MS) detection. For determining metabolic stability, multiple reaction monitoring (MRM) was used to measure the disappearance of the test compounds.
Experimental Procedures. Human liver microsomes (“HLM”; 20 mg/mL) were obtained from Xenotech, LLC (Lenexa, Kans.). β-nicotinamide adenine dinucleotide phosphate, reduced form (NADPH), magnesium chloride (MgCl2), and dimethyl sulfoxide (DMSO) were purchased from Sigma-Aldrich.
Stock solutions of test compounds (7.5 mM) were prepared in DMSO. The 7.5 mM stock solutions were diluted to 50 μM in acetonitrile (ACN). The 20 mg/mL human liver microsomes were diluted to 0.625 mg/mL in 0.1 M potassium phosphate buffer, pH 7.4, containing 3 mM MgCl2. The diluted microsomes (375 μL) were added to wells of a 96-well deep-well polypropylene plate in triplicate. A 10 μL aliquot of the 50 μM test compound solution was added to the microsomes and the mixture was pre-warmed for 10 minutes. Reactions were initiated by addition of 125 μL of pre-warmed NADPH solution (8 mM NADPH in 0.1M potassium phosphate buffer, pH 7.4, containing 3 mM MgCl2). The final reaction volume was 0.5 mL and contained 0.5 mg/mL human liver microsomes, 1 μM test compound, and 2 mM NADPH in 0.1 M potassium phosphate buffer, pH 7.4, and 3 mM MgCl2. The reaction mixtures were incubated at 37° C., and 50 μL aliquots were removed at 0, 5, 10, 20, and 30 minutes and added to shallow-well 96-well plates which contained 50 μL of ice-cold ACN with internal standard to stop the reactions. The plates were stored at 4° C. for 20 minutes after which 100 μL of water was added to the wells of the plate before centrifugation to pellet precipitated proteins. Supernatants were transferred to another 96-well plate and analyzed for amounts of parent remaining by LC-MS/MS using an Applied Bio-systems API 4000 mass spectrometer. 7-ethoxycoumarin was used as a positive control.
The in vitro t1/2 s for test compounds were calculated from the slopes of the linear regression of % parent remaining (ln) vs incubation time relationship.
in vitro t1/2=0.693/k, where k=−[slope of linear regression of % parent remaining(ln) vs incubation time]. Data analysis was performed using Microsoft Excel Software.
Evaluation of Compound Stability in Human Liver Microsomes.

[2] = Compound stability in human liver microsomes (Example 15); type: in vitro ADME; details: 1 μM test compound; for half-life at 1 μM: pH 7.4, pooled human liver microsomes 0.5 mg/mL, 2 mM NADPH, 37° C., 0-30 min; for % Difference (t1/2 compared to erlotinib): [(deuterated species) − (nondeuterated species)](100)/(nondeuterated species), reference erlotinib, 0.5 mg/mL HLM
Procedure: Evaluation of Compound Stability in Human Liver Microsomes. […] The metabolic stability of compounds of the invention was tested using pooled liver microsomal incubations. Samples of the test compounds, exposed to pooled human liver microsomes, were analyzed using HPLC-MS (or MS/MS) detection. For determining metabolic stability, multiple reaction monitoring (MRM) was used to measure the disappearance of the test compounds. Experimental Procedures. Human liver microsomes (“HLM”; 20 mg/mL) were obtained from Xenotech, LLC (Lenexa, Kans.). β-nicotinamide adenine dinucleotide phosphate, reduced form (NADPH), magnesium chloride (MgCl2), and dimethyl sulfoxide (DMSO) were purchased from Sigma-Aldrich. Stock solutions of test compounds (7.5 mM) were prepared in DMSO. The 7.5 mM stock solutions were diluted to 50 μM in acetonitrile (ACN). The 20 mg/mL human liver microsomes were diluted to 0.625 mg/mL in 0.1 M potassium phosphate buffer, pH 7.4, containing 3 mM MgCl2. The diluted microsomes (375 μL) were added to wells of a 96-well deep-well polypropylene plate in triplicate. A 10 μL aliquot of the 50 μM test compound solution was added to the microsomes and the mixture was pre-warmed for 10 minutes. Reactions were initiated by addition of 125 μL of pre-warmed NADPH solution (8 mM NADPH in 0.1M potassium phosphate buffer, pH 7.4, containing 3 mM MgCl2). The final reaction volume was 0.5 mL and contained 0.5 mg/mL human liver microsomes, 1 μM test compound, and 2 mM NADPH in 0.1 M potassium phosphate buffer, pH 7.4, and 3 mM MgCl2. The reaction mixtures were incubated at 37° C., and 50 μL aliquots were removed at 0, 5, 10, 20, and 30 minutes and added to shallow-well 96-well plates which contained 50 μL of ice-cold ACN with internal standard to stop the reactions. The plates were stored at 4° C. for 20 minutes after which 100 μL of water was added to the wells of the plate before centrifugation to pellet precipitated proteins. Supernatants were transferred to another 96-well plate and analyzed for amounts of parent remaining by LC-MS/MS using an Applied Bio-systems API 4000 mass spectrometer. 7-ethoxycoumarin was used as a positive control. The in vitro t1/2 s for test compounds were calculated from the slopes of the linear regression of % parent remaining (ln) vs incubation time relationship. […] Data analysis was performed using Microsoft Excel Software.

| half-life at 1 μM [1] [h] | % Difference with respect to non-deuterated analog [1] [%] | % Difference with respect to non-deuterated Erlotinib [1] [%] | half-life at 1 μM [2] [h] | % Difference (t1/2 compared to erlotinib) [2] [%] | SMILES |
| --- | --- | --- | --- | --- | --- |
| 1.18 | 35 | 19 | – | – | [2H]C([2H])([2H])OC([2H])([2H])COc1cc2ncnc(Nc3cccc(Br)c3)c2cc1OCC([2H])([2H])OC([2H])([2H])[2H] [Compound 105, N-(3-Bromophenyl)-6,7-bis(2-(methoxy-d3)-2,2-d2-ethoxy)quinazolin-4-amine] |
| 1.54 | 22 | 55 | – | – | [2H]C([2H])([2H])OC([2H])([2H])COc1cc2ncnc(Nc3cccc(Cl)c3)c2cc1OCC([2H])([2H])OC([2H])([2H])[2H] [Compound 106, N-(3-Chlorophenyl)-6,7-bis(2-(methoxy-d3)-2,2-d2-ethoxy)quinazolin-4-amine] |
| – | – | – | 1.14 | – | [2H]C([2H])([2H])OC([2H])([2H])C([2H])([2H])Oc1cc2ncnc(Nc3cccc(C#C)c3)c2cc1OC([2H])([2H])C([2H])([2H])OC([2H])([2H])[2H] [Compound 120, N-(3-Ethynylphenyl)-6,7-bis(2-(methoxy-d3)ethoxy-d4)quinazolin-4-amine] |
| – | – | – | 0.847 | −12 | [2H]C([2H])([2H])OC([2H])([2H])C([2H])([2H])Oc1cc2ncnc(Nc3ccc(F)c(C#C)c3)c2cc1OC([2H])([2H])C([2H])([2H])OC([2H])([2H])[2H] [Compound 121, N-(3-Ethynyl-4-fluorophenyl)-6,7-bis(2-(methoxy-d3)ethoxy-d4)quinazolin-4-amine] |
| – | – | – | 0.785 | −19 | [2H]C([2H])([2H])OC([2H])([2H])COc1cc2ncnc(Nc3ccc(F)c(C#C)c3)c2cc1OCC([2H])([2H])OC([2H])([2H])[2H] [Compound 135, N-(3-Ethynyl-4-fluorophenyl)-6,7-bis(2-(methoxy-d3)-2,2-d2-ethoxy)quinazolin-4-amine] |
| – | – | – | 1.48 | – | [2H]C([2H])([2H])OC([2H])([2H])COc1cc2ncnc(Nc3ccc(O)c(C#C)c3)c2cc1OCC([2H])([2H])OC([2H])([2H])[2H] [Compound 138, 4-(6,7-Bis(2-(methoxy-d3)-2,2-d2-ethoxy)quinazolin-4-ylamino)-2-ethynylphenol] |
| 0.997 | – | – | 0.963 | – | C#Cc1cccc(Nc2ncnc3cc(OCCOC)c(OCCOC)cc23)c1 [Erlotinib, [6,7-Bis-(2-methoxy-ethoxy)-quinazolin-4-yl]-(3-ethynyl-phenyl)-amine, reference compound] |
